System: mice exposed to a lethal dose of 60Co radiation
Experiment: Radilex treatment of mice after lethal 60Co radiation exposure (survival, blood counts)
Type: in vivo, mice (C57BL/6J)
Description: One purpose of the study is to determine the effects of Radilex™ ([Sar^9, Met(02)^11]-Substance P) after exposure to a lethal dose of ^60Co radiation exposure. Another purpose of the study is to determine if intra-muscular injections of Radilex™ can be as effective as aerosol inhalation of Radilex™ at 8Gy ^60Co radiation level.
Blood draws (2 animals per group rotating every 5 days) for erythrocytes, leukocytes and platelets were taken to assess anemia, neutropenia and thrombocytopenia. Counts of erythrocytes, leukocytes and platelets were taken to assess anemia, neutropenia and thrombocytopenia and act as indicators of bone marrow damage and/or immune system destruction.
The mice received Radilex™ treatment within 2 hours of radiation exposure. The Radilex™ dosage was administered in a volume of 0.01 ml in a daily single treatment via IM injection into the hind limb muscle a single time, for the duration of the study (30 days), or until death.
The following regimens were tested on groups of 9-11 mice:
10 mM Radilex™ single intramuscular treatment
1 mM Radilex™ single intramuscular treatment
1 mM Radilex™ daily intramuscular treatment
75 uM Radilex™ single intramuscular treatment
75 uM Radilex™ daily intramuscular treatment
10 uM Radilex™ daily via nebulizer
50 uM Radilex™ daily via nebulizer
75 uM Radilex™ daily via nebulizer
100 uM Radilex™ daily via nebulizer […]

[Sar^9, Met(02)^11]-Substance P [Radilex™]
Radioprotection: effects of lethal exposure (mice, lethal 60Co radiation, Radilex intramuscular or via nebulizer, first treatment within 2 hours of exposure): Reversed
Neutropenia and anemia (surviving animals after 60Co radiation, white cell count and hematocrit): Reversed

Source: patent US20100062986A1, “METHOD TO TREAT BLOOD CELL DEPLETION” (ImmuneRegen Biosciences, Inc., priority 2006, published 2010)
